Among the test systems are SNB-75 CNS; UACC-257 melanoma; SN12C renal; MDA-MB-435; SW-620 colon; 786-0 renal; OVCAR-8 ovarian; LOX IMVI melanoma; SK-MEL-5 melanoma; COLO 205 colon; SK-MEL-28 melanoma; MOLT-4 leukemia; HT29 colon; OVCAR-3 ovarian; NCI-H23 lung; MALME-3M melanoma.
What all share (experiment): NCI tumour cell line growth inhibition, 48 h

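In this assay, cells in 96-well plates receive the compound at five concentrations for 48 hours. Endpoints are linearly interpolated between the surrounding concentrations. TGI marks complete inhibition of growth.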 Bounds are passed on as bounds.

Take `COc1ccc(-c2cc(-c3ccc(Cl)cc3)n(C3OC(CO)C(O)C(O)C3O)c(=S)c2C#N)cc1` (centres undefined): the TGI in the assay with SNB-75 CNS was over 100 µM; in the assay with UACC-257 melanoma, over 100 µM; in the assay with SN12C renal, over 100 µM; in the assay on MDA-MB-435, over 100 µM; with SW-620 colon it was over 100 µM; with 786-0 renal, 35.5 µM. In addition, the TGI in the assay with OVCAR-8 ovarian, with LOX IMVI melanoma, in the assay with SK-MEL-5 melanoma, in the assay with COLO 205 colon, with SK-MEL-28 melanoma and in the assay with MOLT-4 leukemia was over 100 µM in each case. Besides, the TGI with HT29 colon is over 100 µM.

As to `Nc1ccc(-c2ncc3cc(-c4cccc(-c5cc6cnc(-c7ccc(N)cc7)nc6c6ccccc56)c4)c4ccccc4c3n2)cc1`, the TGI in the assay on SNB-75 CNS, in the assay with UACC-257 melanoma, with SN12C renal, with MDA-MB-435, with OVCAR-3 ovarian and with NCI-H23 lung was over 100 µM throughout. For the same compound, the TGI with SW-620 colon, in the assay on 786-0 renal, in the assay on OVCAR-8 ovarian, in the assay on LOX IMVI melanoma, in the assay with SK-MEL-5 melanoma and with COLO 205 colon was over 100 µM in each case. The TGI in the assay with SK-MEL-28 melanoma, with MOLT-4 leukemia and with HT29 colon was over 100 µM throughout.

Take `CC(NC(=O)C(OC(=O)C(C)NC(=O)OC(C)(C)C)C(C)C)C(=O)OC(C(=O)O)C(C)C` (centres undefined): the TGI with SNB-75 CNS, with UACC-257 melanoma, in the assay on SN12C renal, with MDA-MB-435, in the assay with OVCAR-3 ovarian and with MALME-3M melanoma was over 100 µM in each case. Besides, the TGI with SW-620 colon, in the assay on 786-0 renal, in the assay on OVCAR-8 ovarian, with SK-MEL-5 melanoma, in the assay with COLO 205 colon and in the assay on SK-MEL-28 melanoma was over 100 µM each time. Besides, the TGI in the assay on MOLT-4 leukemia and in the assay on HT29 colon was over 100 µM each time.

`CC1CC(=O)Nc2cc(Cl)ccc2N1C(=O)C1CC1` (centres undefined): the TGI with UACC-257 melanoma, in the assay on SN12C renal, with MDA-MB-435, with OVCAR-3 ovarian, with MALME-3M melanoma and in the assay on NCI-H23 lung was over 100 µM throughout. Also, the TGI in the assay with SW-620 colon, in the assay with 786-0 renal, in the assay on OVCAR-8 ovarian, with LOX IMVI melanoma, in the assay on SK-MEL-5 melanoma and with COLO 205 colon was over 100 µM each time. In addition, the TGI in the assay on SK-MEL-28 melanoma, in the assay with MOLT-4 leukemia and in the assay with HT29 colon was over 100 µM throughout.

For the compound `CSc1ccccc1P(c1ccccc1SC)c1ccccc1SC`, the TGI in the assay with SN12C renal, with MDA-MB-435, with MALME-3M melanoma, with NCI-H23 lung, in the assay on SW-620 colon and in the assay on 786-0 renal was over 100 µM in each case. Also, the TGI in the assay on OVCAR-8 ovarian, in the assay on LOX IMVI melanoma, in the assay with SK-MEL-5 melanoma, in the assay with SK-MEL-28 melanoma and with MOLT-4 leukemia was over 100 µM in each case.

`Nc1nc(N)c(C2=CCN(Cc3ccccc3)CC2)c(=O)[nH]1`: the TGI in the assay with SNB-75 CNS, in the assay with UACC-257 melanoma, in the assay on SN12C renal, in the assay on MDA-MB-435, with OVCAR-3 ovarian and in the assay on MALME-3M melanoma was over 100 µM throughout. The TGI with NCI-H23 lung, with SW-620 colon, with 786-0 renal, in the assay on OVCAR-8 ovarian, in the assay with SK-MEL-5 melanoma and with COLO 205 colon was over 100 µM each time. Besides, the TGI in the assay on SK-MEL-28 melanoma, in the assay with MOLT-4 leukemia and in the assay with HT29 colon was over 100 µM each time.

For `O=C(O)c1nc2cc(C(F)(F)F)ccc2nc1Nc1ccc(Cl)c(Cl)c1`, the TGI with SNB-75 CNS was determined as 53.3 µM; in the assay on UACC-257 melanoma it was 64.5 µM; in the assay on MDA-MB-435, 18.6 µM; in the assay on OVCAR-3 ovarian, 26.4 µM; in the assay with MALME-3M melanoma it was 38.7 µM; in the assay with NCI-H23 lung, 31.7 µM. In addition, the TGI came out at 22.7 µM in the assay with SW-620 colon; 29.3 µM with 786-0 renal; 26 µM with OVCAR-8 ovarian; 31.2 µM in the assay on LOX IMVI melanoma; 52.6 µM in the assay with SK-MEL-5 melanoma; 30.2 µM in the assay on COLO 205 colon. Moreover, in the assay on HT29 colon, the TGI worked out at 28.8 µM.

For the compound `O=c1cc(CO)n(CCc2c[nH]c3ccccc23)cc1O`, the TGI in the assay on UACC-257 melanoma is over 100 µM; with SN12C renal it was over 100 µM; in the assay with MDA-MB-435, over 100 µM; in the assay with OVCAR-3 ovarian, 75.1 µM; in the assay on MALME-3M melanoma it was 57.5 µM; in the assay on NCI-H23 lung, over 100 µM. Besides, the TGI with SW-620 colon was over 100 µM; in the assay on 786-0 renal, 98.1 µM; in the assay with OVCAR-8 ovarian it was over 100 µM; in the assay with LOX IMVI melanoma, over 100 µM; with SK-MEL-5 melanoma, over 100 µM; in the assay on COLO 205 colon, over 100 µM. Also, the TGI was 47.8 µM in the assay with MOLT-4 leukemia and over 100 µM in the assay on HT29 colon.

As to `COc1ccc(OC)c([N+](=O)[O-])c1-c1nc2sccn2c1/C=N/N=C(N)N`, the TGI in the assay with UACC-257 melanoma, in the assay with SN12C renal, in the assay on MDA-MB-435, in the assay with OVCAR-3 ovarian, in the assay with MALME-3M melanoma and with NCI-H23 lung was over 100 µM in each case. Also, the TGI in the assay on SW-620 colon, in the assay with 786-0 renal, in the assay with OVCAR-8 ovarian, in the assay on LOX IMVI melanoma, in the assay with SK-MEL-5 melanoma and in the assay on COLO 205 colon was over 100 µM throughout. The values for the TGI in the assay with SK-MEL-28 melanoma, in the assay with MOLT-4 leukemia and with HT29 colon were 68.3 µM, 69.5 µM and over 100 µM, respectively.

For `Cc1ccc(N/C(Sc2ccccc2)=C(/C(Cl)=C(Cl)Cl)[N+](=O)[O-])c(C)c1`, the TGI with UACC-257 melanoma was found to be 38.2 µM; with SN12C renal, 43.1 µM; in the assay on MDA-MB-435, 27.7 µM; in the assay with MALME-3M melanoma, 34 µM; with NCI-H23 lung, 68.7 µM; in the assay with SW-620 colon, 36.7 µM. Further, the TGI is 39.1 µM in the assay with 786-0 renal; over 100 µM with OVCAR-8 ovarian; 28.2 µM with LOX IMVI melanoma; 81.7 µM with SK-MEL-5 melanoma; 35.3 µM with COLO 205 colon; 41.2 µM with SK-MEL-28 melanoma. Besides, the TGI in the assay with MOLT-4 leukemia is over 100 µM; in the assay on HT29 colon, 35.6 µM.
